30 substances from patent US12037583B2, “Compositions and methods for immunooncology” (Novartis AG, priority 2015, dated 2024) can be followed below.

The series concerns PDCD1. As to the kind of experiment: NGS editing of PDCD1 by dgRNA in HEK cells stably expressing Cas9.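 Further: dgRNA lipofected into Cas9-expressing HEK cells, lysed after 24 h, target amplicon sequenced, editing = reads carrying insertions or deletions as percent of all reads including wild type.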 In kind it is cell-based, human. To be noted: at least 3 experiments.
Text: Transfection of Cas9GFP-expressing HEK293 cells (HEK-293_Cas9GFP) was used for primary screening of target specific crRNAs. […] Selected crRNAs were chemically synthesized and delivered in a 96 well format. HEK-293-Cas9GFP cells were transfected with target crRNAs comprising a flagpole region of SEQ ID NO: 6607 in a 1:1 ratio with stock trRNA of SEQ ID NO: 6660. The transfection was mediated using lipofection technology according to manufacturer's protocol (DharmaFECT Duo, GE LifeSciences; or RNAiMax, LifeTechnologies). Transfected cells were lysed 24 h following lipofection and editing (e.g., cleavage) was detected within lysates with the T7E1 assay and/or next generation sequencing (NGS; below).
PCR primers were first designed around the target site, and the genomic area of interest PCR amplified. Additional PCR was performed according to manufacturer's protocols (Illumina) to add the necessary chemistry for sequencing. The amplicons were then sequenced on an Illumina MiSeq instrument. The reads were then aligned to the human reference genome (e.g., hg38) after eliminating those having low quality scores. From the resulting files containing the reads mapped to the reference genome (BAM files), reads which overlap the target region of interest were selected and the number of wild type reads versus the number of reads which contain an insertion or deletion was calculated. The editing percentage was then defined as the total number of reads with insertions or deletions over the total number of reads, including wild type. To determine the pattern of insertions and/or deletions that resulted from the edit, the aligned reads with indels were selected and the number of a reads with a given indel were summed.
Editing of CRISPR systems containing dgRNA molecules comprising targeting domains to sequences of PDCD1 were tested for editing in HEK (gRNA delivered to cells stably expressing Cas9) and CD3+ T cells (gRNA and Cas9 delivered as RNP) according to the methods described herein.
All mean editing % are as measured by NGS and are based on at least 3 experiments.
As for “CR000852: dgRNA targeting domain to PDCD1 (guide GUUGGAGAAGCUGCAGGUGA; targeting domain within dual guide RNA, chemistry not given here, further chemistry not given here; listed as Homo sapiens)”, the “HEK (NGS) % Editing Mean” value turned out to be 72%.
For “CR000853: gRNA targeting domain to PDCD1, CACGAAGCUCUCCGAUGUGU (SEQ ID NO: 5749) (targeting domain within guide RNA, chemistry not given here, further chemistry not given here; listed as Homo sapiens)”, the “HEK (NGS) % Editing Mean” value is recorded as 33%.
Consider “CR000854: dgRNA targeting domain to PDCD1 (guide CGGAGAGCUUCGUGCUAAAC; targeting domain within dual guide RNA, chemistry not given here, further chemistry not given here; listed as Homo sapiens)”, for which the “HEK (NGS) % Editing Mean” value is recorded as 24%.
In the case of “CR000855: dgRNA targeting domain to PDCD1 (guide UCUGGUUGCUGGGGCUCAUG; targeting domain within dual guide RNA, chemistry not given here, further chemistry not given here; listed as Homo sapiens)”, the “HEK (NGS) % Editing Mean” value came out at 61%.
Next, “CR000857: dgRNA targeting domain to PDCD1 (guide AGCUUGUCCGUCUGGUUGCU; targeting domain within dual guide RNA, chemistry not given here, further chemistry not given here; listed as Homo sapiens)”: 1%; “CR000858: dgRNA targeting domain to PDCD1 (guide CAGCUUGUCCGUCUGGUUGC; targeting domain within dual guide RNA, chemistry not given here, further chemistry not given here; listed as Homo sapiens)”: 16%.
As for “CR000863: dgRNA targeting domain to PDCD1 (guide CCGGGCUGGCUGCGGUCCUC; targeting domain within dual guide RNA, chemistry not given here, further chemistry not given here; listed as Homo sapiens)”, the figure is 40%; as for “CR000864: dgRNA targeting domain to PDCD1 (guide CCCGAGGACCGCAGCCAGCC; targeting domain within dual guide RNA, chemistry not given here, further chemistry not given here; listed as Homo sapiens)”, 7%; as for “CR000865: dgRNA targeting domain to PDCD1 (guide GCCGGGCUGGCUGCGGUCCU; targeting domain within dual guide RNA, chemistry not given here, further chemistry not given here; listed as Homo sapiens)”, 4%.
Consider “CR000866: dgRNA targeting domain to PDCD1 (guide CGGAAGCGGCAGUCCUGGCC; targeting domain within dual guide RNA, chemistry not given here, further chemistry not given here; listed as Homo sapiens)”, for which the “HEK (NGS) % Editing Mean” value was determined as 4%.
Next, “CR000867: dgRNA targeting domain to PDCD1 (guide ACGGAAGCGGCAGUCCUGGC; targeting domain within dual guide RNA, chemistry not given here, further chemistry not given here; listed as Homo sapiens)”: 24%; “CR000868: gRNA targeting domain to PDCD1, UGACACGGAAGCGGCAGUCC (SEQ ID NO: 5764) (targeting domain within guide RNA, chemistry not given here, further chemistry not given here; listed as Homo sapiens)”: 47%.
As for “CR000869: dgRNA targeting domain to PDCD1 (guide GCAGUUGUGUGACACGGAAG; targeting domain within dual guide RNA, chemistry not given here, further chemistry not given here; listed as Homo sapiens)”, the “HEK (NGS) % Editing Mean” value amounted to 55%.
In the case of “CR000870: dgRNA targeting domain to PDCD1 (guide CGUGUCACACAACUGCCCAA; targeting domain within dual guide RNA, chemistry not given here, further chemistry not given here; listed as Homo sapiens)”, the “HEK (NGS) % Editing Mean” value is listed as 66%.
For the substance “CR000871: dgRNA targeting domain to PDCD1 (guide GUGUCACACAACUGCCCAAC; targeting domain within dual guide RNA, chemistry not given here, further chemistry not given here; listed as Homo sapiens)”, the “HEK (NGS) % Editing Mean” value worked out at 57%.
Next, “CR000872: dgRNA targeting domain to PDCD1 (guide AUGUGGAAGUCACGCCCGUU; targeting domain within dual guide RNA, chemistry not given here, further chemistry not given here; listed as Homo sapiens)”: 26%; “CR000874: dgRNA targeting domain to PDCD1 (guide GCGUGACUUCCACAUGAGCG; targeting domain within dual guide RNA, chemistry not given here, further chemistry not given here; listed as Homo sapiens)”: 47%; “CR000875: dgRNA targeting domain to PDCD1 (guide ACUUCCACAUGAGCGUGGUC; targeting domain within dual guide RNA, chemistry not given here, further chemistry not given here; listed as Homo sapiens)”: 6%.
With “CR000877: dgRNA targeting domain to PDCD1 (guide GGGCCCUGACCACGCUCAUG; targeting domain within dual guide RNA, chemistry not given here, further chemistry not given here; listed as Homo sapiens)”, the “HEK (NGS) % Editing Mean” value is listed as 5%.
Regarding “CR000878: dgRNA targeting domain to PDCD1 (guide ACAUGAGCGUGGUCAGGGCC; targeting domain within dual guide RNA, chemistry not given here, further chemistry not given here; listed as Homo sapiens)”, the “HEK (NGS) % Editing Mean” value is 1%.
Take “CR000879: dgRNA targeting domain to PDCD1 (guide AGGGCCCGGCGCAAUGACAG; targeting domain within dual guide RNA, chemistry not given here, further chemistry not given here; listed as Homo sapiens)”: the “HEK (NGS) % Editing Mean” value is listed as 68%.
For the substance “CR000880: dgRNA targeting domain to PDCD1 (guide GGUGCCGCUGUCAUUGCGCC; targeting domain within dual guide RNA, chemistry not given here, further chemistry not given here; listed as Homo sapiens)”, the “HEK (NGS) % Editing Mean” value came out at 10%.
For the substance “CR000881: gRNA targeting domain to PDCD1, AGGUGCCGCUGUCAUUGCGC (SEQ ID NO: 5777) (targeting domain within guide RNA, chemistry not given here, further chemistry not given here; listed as Homo sapiens)”, the “HEK (NGS) % Editing Mean” value was found to be 21%.
As for “CR000882: dgRNA targeting domain to PDCD1 (guide GACAGCGGCACCUACCUCUG; targeting domain within dual guide RNA, chemistry not given here, further chemistry not given here; listed as Homo sapiens)”, the “HEK (NGS) % Editing Mean” value was 50%.
Next, “CR000883: dgRNA targeting domain to PDCD1 (guide ACAGCGGCACCUACCUCUGU; targeting domain within dual guide RNA, chemistry not given here, further chemistry not given here; listed as Homo sapiens)”: 9%; “CR000884: dgRNA targeting domain to PDCD1 (guide CCAGGGAGAUGGCCCCACAG; targeting domain within dual guide RNA, chemistry not given here, further chemistry not given here; listed as Homo sapiens)”: 59%.
As for “CR000885: dgRNA targeting domain to PDCD1 (guide GAUCUGCGCCUUGGGGGCCA; targeting domain within dual guide RNA, chemistry not given here, further chemistry not given here; listed as Homo sapiens)”, the figure is 10%.
On to “CR000886: dgRNA targeting domain to PDCD1 (guide UGAUCUGCGCCUUGGGGGCC; targeting domain within dual guide RNA, chemistry not given here, further chemistry not given here; listed as Homo sapiens)”, for which the “HEK (NGS) % Editing Mean” value is on record as 2%.
“CR000887: dgRNA targeting domain to PDCD1 (guide CUCUUUGAUCUGCGCCUUGG; targeting domain within dual guide RNA, chemistry not given here, further chemistry not given here; listed as Homo sapiens)”: the “HEK (NGS) % Editing Mean” value is on record as 46%.
For the substance “CR000888: dgRNA targeting domain to PDCD1 (guide UCUCUUUGAUCUGCGCCUUG; targeting domain within dual guide RNA, chemistry not given here, further chemistry not given here; listed as Homo sapiens)”, the “HEK (NGS) % Editing Mean” value was found to be 4%.
